Reference: patent publication US10219513B2, “Safening 4-amino-3-chloro-6-(4-chloro-2-fluoro-3-methoxyphenyl)-5-fluoropyridine-2-carboxylic acid compositions in Brassica species and methods of use thereof” (Dow AgroSciences LLC, priority 2016, dated 2019)
“And” between values parts separate entries of the source, which are not always exact repeats. Equal values may be shown once.

What was measured:
[1] = system: Brassica alboglabra (kale/Chinese kale, BRSAG); assay: Greenhouse postemergence application, visual injury after 20-22 d, BRSAG
Experimental: (§1) Seeds of the desired test plant species were planted in Sun Gro MetroMix® 306 planting mixture, which typically has a pH of 6.0 to 6.8 and an organic matter content of about 30 percent, in plastic pots with a surface area of 103.2 square centimeters (cm^2). […] The plants were grown for 7-36 days (d) in a greenhouse with an approximate 14-hour (h) photoperiod which was maintained at about 23° C. during the day and 22° C. during the night. Nutrients and water were added on a regular basis and supplemental lighting was provided with overhead metal halide 1000-Watt lamps as necessary. The plants were employed for testing when they reached the second or third true leaf stage.
(§2) An aliquot of formulated benzyl 4-amino-3-chloro-6-(4-chloro-2-fluoro-3-methoxyphenyl)-5-fluoropyridine-2-carboxylate (florpyrauxifen-benzyl; 300 grams active ingredient per liter (g ai/L) suspension concentrate (SC)) was placed in a 25 mL glass vial and diluted in a volume of 1.25% (v/v) aqueous Agri-dex crop oil concentrated to obtain a stock solution. […] The concentrated stock solutions were diluted with an aqueous mixture of 1.25% v/v of aqueous Agri-dex crop oil concentrate to provide the appropriate application rates. Compound requirements are based upon a 12 milliliter (mL) application volume at a rate of 187 liters per hectare (L/ha). Stock solutions of the formulated materials were prepared following the same procedure. Spray solutions of the compound mixtures were prepared by adding the stock solutions to the appropriate amount of dilution solution to form a 12 mL spray solution. Formulated compounds were applied to the plant material with an overhead Mandel track sprayer equipped with 8002E nozzles calibrated to deliver 187 L/ha over an application area of 0.503 square meters (m^2) at a spray height of 18 inches (43 centimeters (cm)) above average plant canopy. Control plants were sprayed in the same manner with the solvent blank.
(§3) The treated plants and control plants were placed in a greenhouse as described above and watered by sub-irrigation to prevent wash-off of the test compounds. After 20-22 d, the condition of the test plants as compared with that of the control plants was determined visually and scored on a scale of 0 to 100 percent where 0 corresponds to no injury and 100 corresponds to complete kill. Colby's equation was used to determine the herbicidal effects expected from the mixtures.
(§4) Benzyl 4-amino-3-chloro-6-(4-chloro-2-fluoro-3-methoxyphenyl)-5-fluoropyridine-2-carboxylate (florpyrauxifen-benzyl, 300 g ai/L SC) was combined in two-, three-, and four-way mixtures with one or more of the following: clopyralid-olamine (as Lontrel™ 35A Herbicidal Concentrate), quinclorac (as Facet 75DF), isoxadifen-ethyl (100 g/L SC), cloquintocet-mexyl (120 g/L EC) or mefenpyr-diethyl (as mefenpyr-diethyl 15WP). The mixtures were applied to kale/Chinese kale (Brassica alboglabra, BRSAG), Juncea canola or brown mustard (Brassica juncea, BRSJU), rutabaga (Brassica napus var. napobrassica, BRSNA), all varieties of canola and oilseed rape (Brassica napus, BRSNN), Nexera™ canola (Brassica napus, BRSNN-NEX), winter oilseed rape (Brassica napus, BRSNW), Roundup Ready® canola (Brassica napus, RR-BRSNN), and turnip or Polish canola (Brassica rapa, BRSRR), and the phytotoxicity of the compositions was measured.
(§5) Colby's equation was used to determine the herbicidal effects expected from the mixtures evaluated in the described trials (Colby, S. R. Calculation of the synergistic and antagonistic response of herbicide combinations. Weeds 1967, 15, 20-22.).
(§6) The following equation was used to calculate the expected activity of mixtures containing two active ingredients, A and B: Expected=A+B−(A×B/100) • A=observed efficacy of active ingredient A at the same concentration as used in the mixture; • B=observed efficacy of active ingredient B at the same concentration as used in the mixture.

[2] = system: Brassica napus (winter oilseed rape, BRSNW); assay: Greenhouse postemergence application, visual injury after 20-22 d, BRSNW
Experimental: as §1, §2, §3, §4, §5, §6

[3] = system: Brassica rapa (turnip or Polish canola, BRSRR); assay: Greenhouse postemergence application, visual injury after 20-22 d, BRSRR
Experimental: as §1, §2, §3, §4, §5, §6

[4] = system: Brassica napus (Roundup Ready canola, RR-BRSNN); assay: Greenhouse postemergence application, visual injury after 20-22 d, RR-BRSNN
Experimental: as §1, §2, §3, §4, §5, §6

[5] = system: Brassica napus (all varieties of canola and oilseed rape, BRSNN); assay: Greenhouse postemergence application, visual injury after 20-22 d, BRSNN
Experimental: as §1, §2, §3, §4, §5, §6

[6] = florpyrauxifen-benzyl 2.5 g ai/ha alone
[7] = florpyrauxifen-benzyl 5 g ai/ha alone
[8] = florpyrauxifen-benzyl 10 g ai/ha alone
[9] = florpyrauxifen-benzyl alone 2.5 g ai/ha
[10] = florpyrauxifen-benzyl alone 5 g ai/ha
[11] = florpyrauxifen-benzyl alone 10 g ai/ha
[12] = postemergence application, greenhouse, application rate (g ai/ha) varies

## COc1c(Cl)ccc(-c2nc(C(=O)OCc3ccccc3)c(Cl)c(N)c2F)c1F [Florpyrauxifen-benzyl, benzyl 4-amino-3-chloro-6-(4-chloro-2-fluoro-3-methoxyphenyl)-5-fluoropyridine-2-carboxylate]
[1]; BRSAG, 2.5 g ai/ha
  % Visual Injury Obs: 5%
[1]; BRSAG, 5 g ai/ha
  % Visual Injury Obs: 3%
[1]; BRSAG, 10 g ai/ha
  % Visual Injury Obs: 7%
[1]; BRSAG, florpyrauxifen-benzyl alone 2.5 g ai/ha
  Obs % visual injury: 5%
[1]; BRSAG, florpyrauxifen-benzyl alone 5 g ai/ha
  Obs % visual injury: 3%
[1]; BRSAG, florpyrauxifen-benzyl alone 10 g ai/ha
  Obs % visual injury: 7%
[1]; [6]
  % Visual Injury BRSAG Obs: 5%
  % Visual Injury Obs: 5%
[1]; [7]
  % Visual Injury BRSAG Obs: 3%
  % Visual Injury Obs: 3%
[1]; [8]
  % Visual Injury BRSAG Obs: 7%
  % Visual Injury Obs: 7%
[1]; [9]
  Obs % visual injury BRSAG: 5%
[1]; [10]
  Obs % visual injury BRSAG: 3%
[1]; [11]
  Obs % visual injury BRSAG: 7%
[1]; [12]
  % Visual Injury BRSAG Obs: 3% and 7% and 5%
[2]; BRSNW, 2.5 g ai/ha
  % Visual Injury Obs: 8%
[2]; BRSNW, 5 g ai/ha
  % Visual Injury Obs: 13%
[2]; BRSNW, 10 g ai/ha
  % Visual Injury Obs: 18%
[2]; BRSNW, florpyrauxifen-benzyl alone 2.5 g ai/ha
  Obs % visual injury: 8%
[2]; BRSNW, florpyrauxifen-benzyl alone 5 g ai/ha
  Obs % visual injury: 13%
[2]; BRSNW, florpyrauxifen-benzyl alone 10 g ai/ha
  Obs % visual injury: 18%
[2]; [6]
  % Visual Injury BRSNW Obs: 8%
  % Visual Injury Obs: 8%
[2]; [7]
  % Visual Injury BRSNW Obs: 13%
  % Visual Injury Obs: 13%
[2]; [8]
  % Visual Injury BRSNW Obs: 18%
  % Visual Injury Obs: 18%
[2]; [9]
  Obs % visual injury BRSNW: 8%
[2]; [10]
  Obs % visual injury BRSNW: 13%
[2]; [11]
  Obs % visual injury BRSNW: 18%
[2]; [12]
  % Visual Injury BRSNW Obs: 8% and 13% and 18%
[3]; BRSRR, 2.5 g ai/ha
  % Visual Injury Obs: 6%
[3]; BRSRR, 5 g ai/ha
  % Visual Injury Obs: 9%
[3]; BRSRR, 10 g ai/ha
  % Visual Injury Obs: 14%
[3]; BRSRR, florpyrauxifen-benzyl alone 2.5 g ai/ha
  Obs % visual injury: 6%
[3]; BRSRR, florpyrauxifen-benzyl alone 5 g ai/ha
  Obs % visual injury: 9%
[3]; BRSRR, florpyrauxifen-benzyl alone 10 g ai/ha
  Obs % visual injury: 14%
[3]; [6]
  % Visual Injury BRSRR Obs: 6%
  % Visual Injury Obs: 6%
[3]; [7]
  % Visual Injury BRSRR Obs: 9%
  % Visual Injury Obs: 9%
[3]; [8]
  % Visual Injury BRSRR Obs: 14%
  % Visual Injury Obs: 14%
[3]; [9]
  Obs % visual injury BRSRR: 6%
[3]; [10]
  Obs % visual injury BRSRR: 9%
[3]; [11]
  Obs % visual injury BRSRR: 14%
[3]; [12]
  % Visual Injury BRSRR Obs: 6% and 9% and 14%
[4]; RR-BRSNN, 2.5 g ai/ha
  % Visual Injury Obs: 6%
[4]; RR-BRSNN, 5 g ai/ha
  % Visual Injury Obs: 9%
[4]; RR-BRSNN, 10 g ai/ha
  % Visual Injury Obs: 19%
[4]; RR-BRSNN, florpyrauxifen-benzyl alone 2.5 g ai/ha
  Obs % visual injury: 6%
[4]; RR-BRSNN, florpyrauxifen-benzyl alone 5 g ai/ha
  Obs % visual injury: 9%
[4]; RR-BRSNN, florpyrauxifen-benzyl alone 10 g ai/ha
  Obs % visual injury: 19%
[4]; [6]
  % Visual Injury Obs: 6%
  % Visual Injury RR-BRSNN Obs: 6%
[4]; [7]
  % Visual Injury Obs: 9%
  % Visual Injury RR-BRSNN Obs: 9%
[4]; [8]
  % Visual Injury Obs: 19%
  % Visual Injury RR-BRSNN Obs: 19%
[4]; [9]
  Obs % visual injury RR-BRSNN: 6%
[4]; [10]
  Obs % visual injury RR-BRSNN: 9%
[4]; [11]
  Obs % visual injury RR-BRSNN: 19%
[5]; BRSNN, 2.5 g ai/ha
  % Visual Injury Obs: 7%
[5]; BRSNN, 5 g ai/ha
  % Visual Injury Obs: 12%
[5]; BRSNN, 10 g ai/ha
  % Visual Injury Obs: 18%
[5]; BRSNN, florpyrauxifen-benzyl alone 2.5 g ai/ha
  Obs % visual injury: 7%
[5]; BRSNN, florpyrauxifen-benzyl alone 5 g ai/ha
  Obs % visual injury: 12%
[5]; BRSNN, florpyrauxifen-benzyl alone 10 g ai/ha
  Obs % visual injury: 18%
[5]; [6]
  % Visual Injury BRSNN Obs: 7%
  % Visual Injury Obs: 7%
[5]; [7]
  % Visual Injury BRSNN Obs: 12%
  % Visual Injury Obs: 12%
[5]; [8]
  % Visual Injury BRSNN Obs: 18%
  % Visual Injury Obs: 18%
[5]; [9]
  Obs % visual injury BRSNN: 7%
[5]; [10]
  Obs % visual injury BRSNN: 12%
[5]; [11]
  Obs % visual injury BRSNN: 18%
